Reference: EP1752193A1, “Use of one or more cyclic 1,2-alkylene carbonates as stabilizer and activity enhancer for preservatives, corresponding composition” (Dr. Straetmans Chemische Produkte GmbH, priority 2005, dated 2007)

Tests used:
Type in all cases: cell-based
Mikroorganismen = test: synergistic enhancement of antimicrobial agents by cyclic 1,2-alkylene carbonates; details: combination of cyclic 1,2-alkylene carbonate with preservative or antimicrobial additive
Excerpt: Die Verwendung dieser zyklischen 1,2-Alkylencarbonate zur Herstellung von Mischungen mit herkömmlichen Konservierungsmitteln und der erfindungsgemäße Einsatz dieser Mischungen in kosmetischen oder dermatologischen Anwendungen zeigte überraschenderweise, dass die Effizienz der Konservierungsmittel in Konzentrationen, die für sich allein keine antimikrobielle Wirkung mehr zeigten, durch den Zusatz der zyklischen 1,2-Alkylencarbonate erheblich gesteigert werden kann und somit der Anteil der Konservierungsmittel in den entsprechenden Produkten signifikant gesenkt werden konnte.
Zyklische 1,2-Alkylencarbonate, für die dieser synergistische Effekt nachgewiesen werden konnten, finden sich bevorzugt in der Gruppe der linearen und verzweigten 1,2-Alkylencarboate mit einer Kettenlänge von n = 4 - 8, z.B. 1,2-Butylencarbonat, 1,2-Pentylencarbonat, 1,2-Hexylencarbonat und 1,2-Octylencarbonat.
Konservierungsmittel im Sinne der Erfindung, für die dieser synergistische Effekt nachgewiesen werden konnte, sind Methylparaben, Ethylparaben, Propylparaben, Isopropylparaben, Butylparaben und die Mischungen dieser Parabene, Phenoxyethanol, Benzoesäure und ihre Ester und Salze, Sorbinsäure und ihre Salze sowie Benzylalkohol. Die zu erwartenden synergistischen Effekte von 1,2-Alkylencarbonaten mit Iodopropinylbutylcarbamat, Formaldehyd and Formaldehyd-Abspalter (z.B. DMDM-Hydantoin, Imidazolinylharnstoff, Paraformaldehyd), Chlorphenesin, Bronopol, Methyldibromglutaronitril, Dehydracetsäure und ihre Salze, Polyaminopropylbiguanide, Chlorhexidin und seine Derivate (z.B. Chlorhexidinacetat, Chlorhexidingluconat, Chlorhexidinhydrochlorid), Methylisothiazolinon und Methylchloroisothiazolinone neben den in Anhang 6, Teil A und B der Kosmetikverordnung aufgeführten weiteren Stoffklassen oder Mischungen der genannten Konservierungsmittel werden ebenfalls in dieser Erfindung beansprucht.
Multifunktionellen Kosmetikadditive mit antimikrobiellen Eigenschaften im Sinne dieser Erfindung finden sich vor allem in der Gruppe der mittelkettigen polaren Substanzen. Diese Gruppe umfasst Polyole mit 5 - 12 Kohlenstoffatomen, wie z.B. Pentylenglycol, Hexylenglycol, 1,2-Hexandiol, Caprylyl Glycol oder 2-Methyl-1,3-propandiol, Monoester aus Glycerin und Fettsäuren der Kettenlänge n = 6 - 12, wie z.B. Glyceryl Caprylate, Glyceryl Caprate oder Glyceryl Laurate, Ether der Glycerins mit linearen oder verzweigten Alkanolen der Kettenlänge n = 6 - 12, wie z.B. das Ethylhexylglycerin sowie N-Acylderivate von Aminosäuren, z.B. N.Undecenylglycin.

Escherichia Coli = test: microbiological challenge test (preservative efficacy, Ph. Eur. 1997 5.1.3); details: emulsion with 0,50 preservative, 2,00 carbonate where named
Excerpt: (§1) Ergebnisse des mikrobiologischen Belastungstests, durchgeführt nach europäischem Arzneibuch 1997: 5.1.3 Prüfung auf ausreichende Konservierung (entspricht Deutschem Arzneibuch: VIII.14) für die Beispielrezeptur nach 1.:
(§2) Ergebnisse des mikrobiologischen Belastungstests, durchgeführt nach europäischem Arzneibuch 1997: 5.1.3 Prüfung auf ausreichende Konservierung (entspricht Deutschem Arzneibuch: VIII.14) für die Beispielrezeptur nach 3.:
(§3) Ergebnisse des mikrobiologischen Belastungstests, durchgeführt nach europäischem Arzneibuch 1997: 5.1.3 Prüfung auf ausreichende Konservierung (entspricht Deutschem Arzneibuch: VIII.14) für die Beispielrezeptur nach 4.:
(§4) Ergebnisse des mikrobiologischen Belastungstests, durchgeführt nach europäischem Arzneibuch 1997: 5.1.3 Prüfung auf ausreichende Konservierung (entspricht Deutschem Arzneibuch: VIII.14) für die Beispielrezeptur nach 5.:
(§5) Ergebnisse des mikrobiologischen Belastungstests, durchgeführt nach europäischem Arzneibuch 1997: 5.1.3 Prüfung auf ausreichende Konservierung (entspricht Deutschem Arzneibuch: VIII.14) für die Beispielrezeptur nach 6.: […]

Aspergillus Niger = test: as above; details: emulsion with 0,50 preservative, 2,00 carbonate where named
Excerpt: as §1, §2, §3, §4, §5

Staphylococcus aureus = test: as above; details: emulsion with 0,50 preservative, 2,00 carbonate where named
Excerpt: as §1, §2, §3, §4, §5

Pseudomonas Aeruginosa = test: as above; details: emulsion with 0,50 preservative, 2,00 carbonate where named
Excerpt: as §1, §2, §3, §4, §5

Candida Albicans = test: as above; details: emulsion with 0,50 preservative, 2,00 carbonate where named
Excerpt: as §1, §2, §3, §4, §5

Compound	synergistische Effekt (Mikroorganismen)	Koloniebildende Einheiten / g nach Beimpfung mit: Escherichia Coli (Escherichia Coli; 0 Tage (inoculum))	Koloniebildende Einheiten / g nach Beimpfung mit: Escherichia Coli (Escherichia Coli; 2 Tage)	Koloniebildende Einheiten / g nach Beimpfung mit: Escherichia Coli (Escherichia Coli; 7 Tage)	Koloniebildende Einheiten / g nach Beimpfung mit: Escherichia Coli (Escherichia Coli; 14 Tage)	Koloniebildende Einheiten / g nach Beimpfung mit: Escherichia Coli (Escherichia Coli; 28 Tage)	Koloniebildende Einheiten / g nach Beimpfung mit: Aspergillus Niger (Aspergillus Niger; 0 Tage (inoculum))	Koloniebildende Einheiten / g nach Beimpfung mit: Aspergillus Niger (Aspergillus Niger; 2 Tage)	Koloniebildende Einheiten / g nach Beimpfung mit: Aspergillus Niger (Aspergillus Niger; 7 Tage)	Koloniebildende Einheiten / g nach Beimpfung mit: Aspergillus Niger (Aspergillus Niger; 14 Tage)	Koloniebildende Einheiten / g nach Beimpfung mit: Aspergillus Niger (Aspergillus Niger; 28 Tage)	Koloniebildende Einheiten / g nach Beimpfung mit: Staphylococcus aureus (Staphylococcus aureus; 0 Tage (inoculum))	Koloniebildende Einheiten / g nach Beimpfung mit: Staphylococcus aureus (Staphylococcus aureus; 2 Tage)	Koloniebildende Einheiten / g nach Beimpfung mit: Staphylococcus aureus (Staphylococcus aureus; 7 Tage)	Koloniebildende Einheiten / g nach Beimpfung mit: Staphylococcus aureus (Staphylococcus aureus; 14 Tage)	Koloniebildende Einheiten / g nach Beimpfung mit: Staphylococcus aureus (Staphylococcus aureus; 28 Tage)	Koloniebildende Einheiten / g nach Beimpfung mit: Pseudomonas Aeruginosa (Pseudomonas Aeruginosa; 0 Tage (inoculum))	Koloniebildende Einheiten / g nach Beimpfung mit: Pseudomonas Aeruginosa (Pseudomonas Aeruginosa; 2 Tage)	Koloniebildende Einheiten / g nach Beimpfung mit: Pseudomonas Aeruginosa (Pseudomonas Aeruginosa; 7 Tage)	Koloniebildende Einheiten / g nach Beimpfung mit: Pseudomonas Aeruginosa (Pseudomonas Aeruginosa; 14 Tage)	other results
CCC1COC(=O)O1 (stereo not drawn) [BC, 1,2-Butylencarbonat]	Besonders ausgeprägt Effekte																				
OCc1ccccc1 [Benzylalkohol]		810000 Koloniebildende Einheiten / g	100000 Koloniebildende Einheiten / g	100000 Koloniebildende Einheiten / g	52000 Koloniebildende Einheiten / g	8000 Koloniebildende Einheiten / g	170000 Koloniebildende Einheiten / g	64000 Koloniebildende Einheiten / g	60000 Koloniebildende Einheiten / g	59000 Koloniebildende Einheiten / g	61000 Koloniebildende Einheiten / g	250000 Koloniebildende Einheiten / g	100000 Koloniebildende Einheiten / g	4000 Koloniebildende Einheiten / g	<10 Koloniebildende Einheiten / g	<10 Koloniebildende Einheiten / g	210000 Koloniebildende Einheiten / g	40000 Koloniebildende Einheiten / g	12000 Koloniebildende Einheiten / g	1000 Koloniebildende Einheiten / g	Koloniebildende Einheiten / g nach Beimpfung mit: Pseudomonas Aeruginosa (Pseudomonas Aeruginosa; 28 Tage): <10 Koloniebildende Einheiten / g; Koloniebildende Einheiten / g nach Beimpfung mit: Candida Albicans (Candida Albicans; 0 Tage (inoculum)): 410000 Koloniebildende Einheiten / g; Koloniebildende Einheiten / g nach Beimpfung mit: Candida Albicans (Candida Albicans; 2 Tage): 70000 Koloniebildende Einheiten / g; Koloniebildende Einheiten / g nach Beimpfung mit: Candida Albicans (Candida Albicans; 7 Tage): 50000 Koloniebildende Einheiten / g; Koloniebildende Einheiten / g nach Beimpfung mit: Candida Albicans (Candida Albicans; 14 Tage): 50000 Koloniebildende Einheiten / g; Koloniebildende Einheiten / g nach Beimpfung mit: Candida Albicans (Candida Albicans; 28 Tage): 45000 Koloniebildende Einheiten / g
CCCCCCC(O)CO (stereo not drawn) [Caprylyl Glycol]	Besonders ausgeprägte Effekte																				
CCCCCCCC(=O)OCC(O)CO (stereo not drawn) [Glyceryl Caprylate]	Besonders ausgeprägte Effekte																				
CCCC1COC(=O)O1 (stereo not drawn) [PC, 1,2-Pentylencarbonat]	Besonders ausgeprägt Effekte																				
OCCOc1ccccc1 [Phenoxyethanol]		3000000 Koloniebildende Einheiten / g	100000 Koloniebildende Einheiten / g	100000 Koloniebildende Einheiten / g	100000 Koloniebildende Einheiten / g	70000 Koloniebildende Einheiten / g	320000 Koloniebildende Einheiten / g	60000 Koloniebildende Einheiten / g	60000 Koloniebildende Einheiten / g	60000 Koloniebildende Einheiten / g	50000 Koloniebildende Einheiten / g	380000 Koloniebildende Einheiten / g	100000 Koloniebildende Einheiten / g	100000 Koloniebildende Einheiten / g	84000 Koloniebildende Einheiten / g	80000 Koloniebildende Einheiten / g	600000 Koloniebildende Einheiten / g	8000 Koloniebildende Einheiten / g	10000 Koloniebildende Einheiten / g	10000 Koloniebildende Einheiten / g	Koloniebildende Einheiten / g nach Beimpfung mit: Pseudomonas Aeruginosa (Pseudomonas Aeruginosa; 28 Tage): 10000 Koloniebildende Einheiten / g; Koloniebildende Einheiten / g nach Beimpfung mit: Candida Albicans (Candida Albicans; 0 Tage (inoculum)): 310000 Koloniebildende Einheiten / g; Koloniebildende Einheiten / g nach Beimpfung mit: Candida Albicans (Candida Albicans; 2 Tage): 100000 Koloniebildende Einheiten / g; Koloniebildende Einheiten / g nach Beimpfung mit: Candida Albicans (Candida Albicans; 7 Tage): 100000 Koloniebildende Einheiten / g; Koloniebildende Einheiten / g nach Beimpfung mit: Candida Albicans (Candida Albicans; 14 Tage): 100000 Koloniebildende Einheiten / g; Koloniebildende Einheiten / g nach Beimpfung mit: Candida Albicans (Candida Albicans; 28 Tage): 80000 Koloniebildende Einheiten / g
